Source: patent US8338426B2, “Piperazinyl derivatives useful as modulators of the neuropeptide Y2 receptor” (Janssen Pharmaceutica NV, priority 2007, dated 2012)

Columns and labels:
hY2 = target: T1, hY2 (Homo sapiens, UniProt P49146); experiment: Ca2+ mobilization assay (FLIPR) in KAN-Ts cells; assay type: cell-based; conditions: KANT-S cells, inhibition of PYY stimulated Ca2+ increase, read-out: hY2 pKB (converted)
T1 construct: KAN-Ts endogenously expressing Y2 receptors were used; endogenous in cells; host or cells: KAN-Ts cells stably expressing chimeric G proteins
T1 sequence (P49146 1-381): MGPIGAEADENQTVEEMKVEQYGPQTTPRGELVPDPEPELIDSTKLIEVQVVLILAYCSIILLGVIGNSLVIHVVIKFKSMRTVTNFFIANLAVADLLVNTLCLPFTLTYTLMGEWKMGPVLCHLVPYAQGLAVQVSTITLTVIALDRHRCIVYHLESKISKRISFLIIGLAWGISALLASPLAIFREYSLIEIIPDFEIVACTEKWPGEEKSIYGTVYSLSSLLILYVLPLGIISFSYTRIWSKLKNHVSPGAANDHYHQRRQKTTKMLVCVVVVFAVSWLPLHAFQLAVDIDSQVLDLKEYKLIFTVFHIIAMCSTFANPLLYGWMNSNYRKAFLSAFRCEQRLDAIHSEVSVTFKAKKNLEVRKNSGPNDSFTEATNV
Method: The assay was performed using the fluorimetric imaging plate reader (FLIPR) format as described in Dautzenberg, F. M., Biochemical Pharmacology 2005, 69, 1493.
KAN-Ts cells stably expressing chimeric G proteins were seeded at a density of 100,000 cells into poly-d-lysine coated 384-well blackwall, clear-bottom microtiter plates (Corning, N.Y.). One day later, the medium was removed and 50 μl loading medium DMEM high glucose, without serum, supplemented with 10 mM HEPES-acid, 0.1% BSA, 5 mM probenecid and 2 μM Fluo-3AM was added. Cells were loaded for 1 h at 37° C., washed twice with 50 μl assay buffer (5 mM HEPES-acid, 140 mM NaCl, 1 mM MgCl2, 5 mM KCl, 10 mM glucose) and then 30 μl assay buffer was added. Cells were further pre-incubated at room temperature before adding agonists or agonists plus antagonists in 20 μl assay buffer and then measured on a T-channel fluorometric imaging plate reader (FLIPR, Molecular Devices, Sunnyvale, Calif.).
Antagonistic potency values were converted to apparent pKB values using a modified Cheng-Prusoff correction. Apparent pKB=−log IC50/1+[conc agonist/EC50]. Data below are expressed as mean±S.E.M.
The in vitro antagonistic properties of the compound of formula (A) were confirmed using Ca^2+ measurement.

mouse Y2 receptor = target: T2, mouse Y2 receptor (Mus musculus, UniProt P97295); experiment: Neuropeptide Y2 radioligand binding assay, [125I]PYY, mouse hippocampus membranes; conditions: read-out: mY2 pKi (converted)
T2 construct: membranes from rat or mouse hippocampus were prepared; from tissue; host or cells: mouse hippocampus membranes
T2 sequence (P97295 1-381): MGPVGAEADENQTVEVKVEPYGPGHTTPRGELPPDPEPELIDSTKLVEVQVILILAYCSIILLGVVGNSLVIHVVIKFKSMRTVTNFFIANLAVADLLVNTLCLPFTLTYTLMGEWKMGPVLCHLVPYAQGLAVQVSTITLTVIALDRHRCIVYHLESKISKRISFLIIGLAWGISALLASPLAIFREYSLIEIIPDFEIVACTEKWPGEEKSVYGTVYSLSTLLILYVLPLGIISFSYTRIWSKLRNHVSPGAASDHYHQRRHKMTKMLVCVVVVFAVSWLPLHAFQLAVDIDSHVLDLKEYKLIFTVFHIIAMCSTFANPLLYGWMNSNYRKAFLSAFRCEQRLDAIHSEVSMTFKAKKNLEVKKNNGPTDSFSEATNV
Method: Radioligand binding assays for the human and rat/mouse Y2 receptor were performed as described in Bonaventure, P., D. Nepomuceno, C. Mazur, B. Lord, D. A. Rudolph, J. A. Jablonowski, N. I. Carruthers and T. W. Lovenberg, J Pharmacol Exp Ther. 2004, 308, 1130.
KAN-Ts endogenously expressing Y2 receptors were used, for the rat and mouse Y2 receptor, membranes from rat or mouse hippocampus were prepared. Membranes were incubated with [^125I]PYY (80 pM) in the presence or absence of test compound for 1 h at rt. The reaction was stopped by filtration through GF/C filter plates pre-soaked in 0.3% polyethylenimine and subsequently washed with Tris-HCl, 50 mM, 5 mM EDTA buffer. Plates were dried for 1 h in a 55° C. oven, scintillation fluid was added and the radioactivity was counted in a Packard TopCount. Specific binding to the NPY receptor subtypes was determined by radioactivity that was bound in the presence of 1 μM NPY.
Apparent Ki values were calculated as K=IC50/(1+C/KD), where C is concentration of the radioligand and pKi=−log Ki. Data presented below are expressed as mean±S.E.M.

NPY Y1 receptor = target: T3, NPY Y1 receptor (Homo sapiens, UniProt P25929); experiment: CEREP binding panel, NPY Y1
T3 construct: CEREP
T3 sequence (P25929 1-384): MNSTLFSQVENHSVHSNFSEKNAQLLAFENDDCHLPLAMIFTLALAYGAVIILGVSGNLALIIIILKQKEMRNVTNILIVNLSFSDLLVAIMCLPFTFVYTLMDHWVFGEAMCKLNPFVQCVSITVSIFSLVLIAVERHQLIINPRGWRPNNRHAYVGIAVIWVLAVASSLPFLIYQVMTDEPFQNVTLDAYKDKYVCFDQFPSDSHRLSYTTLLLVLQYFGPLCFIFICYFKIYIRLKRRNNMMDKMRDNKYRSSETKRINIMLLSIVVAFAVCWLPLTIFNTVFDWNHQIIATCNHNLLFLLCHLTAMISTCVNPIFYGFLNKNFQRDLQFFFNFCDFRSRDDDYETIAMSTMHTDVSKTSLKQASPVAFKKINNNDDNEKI
Method: The selectivity of the compound of formula (A) was further evaluated in a large variety of ion-channels, transporters and receptor-binding assays including the Y1 receptor subtype. These assays were performed by CEREP (Celles L'Evescault, France; www.cere.com<http//www.cerea.com>). Selectivity vs the Y5 receptor subtype was evaluated as described in Bonaventure, P., D. Nepomuceno, C. Mazur, B. Lord, D. A. Rudolph, J. A. Jablonowski, N. I. Carruthers and T. W. Lovenberg, J Pharmacol Exp Ther. 2004, 308, 1130.
The compound of formula (A) was assayed by binding in a panel of 50 receptors, ion channels and transporters assays (CEREP) including adenosine (A1,A2A,A3), adrenergic (α1, α2, β1), angiotensin (AT1), dopamine (D1, D2), bradykinin (B2), cholecystokinin (CCKA), galanin (GAL2), melatonin ML1), muscarinic (M1, M2, M3), neurotensin (NTS), neurokinin (NK2, NK3), NPY (Y1, Y2) opiate (m, k, d), serotonin (5-HT1A, 5-HT1B, 5-HT2A, 5-HT3, 5-HT5A, 5-HT6, 5-HT7), somatostatin, vasopressin (V1a), norepinephrine transporter, dopamine transporter and ion channels (sodium, calcium, potassium and chloride).

Kb (hY2): 2.69 nM
Ki (mouse Y2 receptor): 4.47 nM
inhibition at 1 µM (NPY Y1 receptor): 10%
SMILES: CCN(CC)C(=O)C(c1ccccc1)N1CCN(c2ccc(NC(=O)c3ccccc3-c3cccnc3)cc2F)CC1 (racemic) [Cmpd (A), N-{4-[4-(Diethylcarbamoyl-phenyl-methyl)-piperazin-1-yl]-3-fluoro-phenyl}-2-pyridin-3-yl-benzamide]
